Tests used:
[1] = molecular target: CRBN/DDB1 (Homo sapiens (Human), UniProt Q96SW2); assay: IC50 measurements for binding to CRBN/DDB1 (HTRF); conditions: His tagged CRBN+DDB, Cy5-labeled Thalidomide probe, one hour
Procedure: In vitro Assay: IC50 Measurements for binding to CRBN/DDB1 (Table E1)
The binding potency was determined using HTRF assay technology (Perkin Elmer). Compounds were serially diluted in DMSO and 0.2 μL volume was transferred to white 384-well plate. The reaction was conducted in total volume of 20 μL with addition of 2 nM His tagged CRBN+DDB−DLS7+CXU4 (Wuxi, catalogue #RP210521GA) to compounds followed by addition of 60 nM Fluorescent probe Cy5-labeled Thalidomide (Tenova Pharma, catalogue #T52461), and 0.4 nM of MAb Anti-6HIS Tb cryptate Gold (Cisbio, catalogue #61HI2TLA in the assay buffer (50 mM HEPES pH 7.5, 1 mM TCEP, 0.01% Brij-35, 50 mM NaCl, and 0.1% BSA). After one hour incubation at room temperature, the HTRF signals were read on Envision reader (Perkin Elemer). Data was analyzed using XLfit using four parameters dose response curve to determine IC50s. A: IC50<0.1 μM; B: 0.1 μM<IC50<[…]; C: 0.5 μM<IC50<1 μM; D: 1 μM<IC50<5 μM; E: 5 μM<IC50<10 μM

[2] = molecular target: IKZF1 (Homo sapiens (Human), UniProt Q13422+Q96SW2); assay: In vitro IKZF1 HiBit Assay (HEK293T Flp-in-HiBiT-IKZF1 stable cell line); format: cell-based; conditions: HEK293T Flp-in-HiBiT-IKZF1 stable cell line, 6 hrs incubation; for DC50: read-out: IKZF1 HiBit DC50; for Dmax: HEK-293T, read-out: IKZF1 HiBit Dmax (%)
How it was run: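 Degradation was measured as loss of luminescence from the HiBiT-IKZF1 tag after 6 h compound treatment, with 0.1% final DMSO, in stable HEK293T Flp-in cells. Values were normalized to DMSO, giving the 50% degradation concentration and the maximal degradation range.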

[3] = molecular target: IKZF2 (Homo sapiens (Human), UniProt Q96SW2+Q9UKS7); assay: In vitro IKZF2 HiBit Assay (HEK293T Flp-in-HiBiT cells); format: cell-based; conditions: HEK293T Flp-in-HiBiT cells, 6 hrs incubation; for DC50: read-out: IKZF2 HiBit DC50; for Dmax: HEK-293T, read-out: IKZF2 HiBit Dmax (%)
How it was run: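 Remaining tagged Helios was read as lytic HiBiT/LgBiT luminescence normalized to DMSO, yielding binned DC50 and Dmax values. Treatment ran 6 h, with compounds at 11 three-fold doses diluted from 1 mM and 0.1% final DMSO. The cells were HEK293T Flp-in with CRISPR knock-in of HiBiT at the IKZF2 N-terminus.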

Chain of IKZF2 (Q9UKS7 whole entry): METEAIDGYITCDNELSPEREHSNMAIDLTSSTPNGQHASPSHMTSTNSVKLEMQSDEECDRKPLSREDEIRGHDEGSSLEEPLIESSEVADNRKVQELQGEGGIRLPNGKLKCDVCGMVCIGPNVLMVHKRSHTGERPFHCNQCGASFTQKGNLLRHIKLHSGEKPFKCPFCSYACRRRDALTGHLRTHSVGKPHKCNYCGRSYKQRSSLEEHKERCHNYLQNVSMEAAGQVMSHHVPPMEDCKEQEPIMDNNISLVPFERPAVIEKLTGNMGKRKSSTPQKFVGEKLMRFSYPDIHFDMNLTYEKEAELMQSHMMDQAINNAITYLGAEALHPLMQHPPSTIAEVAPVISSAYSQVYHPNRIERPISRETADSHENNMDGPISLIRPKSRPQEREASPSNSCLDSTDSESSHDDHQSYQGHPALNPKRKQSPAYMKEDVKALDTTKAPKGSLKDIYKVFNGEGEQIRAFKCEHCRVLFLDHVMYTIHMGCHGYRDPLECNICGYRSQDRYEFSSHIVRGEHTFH
Chain of IKZF2 (Q96SW2 whole entry): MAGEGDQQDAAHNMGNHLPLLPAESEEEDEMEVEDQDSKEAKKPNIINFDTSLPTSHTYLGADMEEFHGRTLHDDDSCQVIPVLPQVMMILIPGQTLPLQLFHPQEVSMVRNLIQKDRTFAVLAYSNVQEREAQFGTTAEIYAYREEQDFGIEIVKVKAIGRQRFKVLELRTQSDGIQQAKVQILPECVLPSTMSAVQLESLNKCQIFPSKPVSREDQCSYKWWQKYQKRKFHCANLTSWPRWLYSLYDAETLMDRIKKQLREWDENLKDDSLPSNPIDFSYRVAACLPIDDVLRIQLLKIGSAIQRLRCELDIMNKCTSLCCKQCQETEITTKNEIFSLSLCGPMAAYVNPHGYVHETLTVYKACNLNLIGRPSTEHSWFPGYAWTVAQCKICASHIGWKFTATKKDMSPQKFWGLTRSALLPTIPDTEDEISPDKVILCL
Chain of IKZF2 (Q16531 2-1140 partner): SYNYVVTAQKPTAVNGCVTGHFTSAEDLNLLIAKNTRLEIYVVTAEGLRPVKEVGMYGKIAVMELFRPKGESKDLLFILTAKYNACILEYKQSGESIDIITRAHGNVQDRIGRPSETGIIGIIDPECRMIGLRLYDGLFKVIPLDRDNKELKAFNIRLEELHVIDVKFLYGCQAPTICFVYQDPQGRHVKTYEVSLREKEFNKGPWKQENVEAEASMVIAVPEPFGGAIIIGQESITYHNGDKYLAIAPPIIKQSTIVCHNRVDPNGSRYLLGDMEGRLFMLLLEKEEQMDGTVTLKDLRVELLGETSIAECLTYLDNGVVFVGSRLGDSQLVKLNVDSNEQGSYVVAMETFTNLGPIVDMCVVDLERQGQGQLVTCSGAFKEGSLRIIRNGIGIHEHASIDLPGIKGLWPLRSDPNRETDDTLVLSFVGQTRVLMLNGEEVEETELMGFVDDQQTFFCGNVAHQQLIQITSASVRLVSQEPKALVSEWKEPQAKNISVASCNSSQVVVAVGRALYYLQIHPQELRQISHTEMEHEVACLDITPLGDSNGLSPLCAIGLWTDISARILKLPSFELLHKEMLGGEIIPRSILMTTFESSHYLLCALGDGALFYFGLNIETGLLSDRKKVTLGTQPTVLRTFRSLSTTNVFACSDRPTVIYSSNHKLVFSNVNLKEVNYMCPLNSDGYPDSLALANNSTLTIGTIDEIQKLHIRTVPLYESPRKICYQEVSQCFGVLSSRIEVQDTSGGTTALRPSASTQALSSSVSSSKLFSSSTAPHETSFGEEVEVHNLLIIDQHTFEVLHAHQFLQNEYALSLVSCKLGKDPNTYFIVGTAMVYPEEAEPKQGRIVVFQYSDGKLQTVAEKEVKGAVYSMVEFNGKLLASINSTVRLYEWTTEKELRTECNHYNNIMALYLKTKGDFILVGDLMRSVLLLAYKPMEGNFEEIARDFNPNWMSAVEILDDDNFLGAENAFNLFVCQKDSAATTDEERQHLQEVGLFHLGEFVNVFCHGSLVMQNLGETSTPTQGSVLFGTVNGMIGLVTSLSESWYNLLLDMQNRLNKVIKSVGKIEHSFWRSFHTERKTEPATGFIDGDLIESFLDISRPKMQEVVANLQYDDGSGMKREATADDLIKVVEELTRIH
Chain of CRBN/DDB1 (Q96SW2 whole entry, species assumed): as the sequence (Q96SW2 whole entry) above
Chain of CRBN/DDB1 (Q16531 whole entry partner, species assumed): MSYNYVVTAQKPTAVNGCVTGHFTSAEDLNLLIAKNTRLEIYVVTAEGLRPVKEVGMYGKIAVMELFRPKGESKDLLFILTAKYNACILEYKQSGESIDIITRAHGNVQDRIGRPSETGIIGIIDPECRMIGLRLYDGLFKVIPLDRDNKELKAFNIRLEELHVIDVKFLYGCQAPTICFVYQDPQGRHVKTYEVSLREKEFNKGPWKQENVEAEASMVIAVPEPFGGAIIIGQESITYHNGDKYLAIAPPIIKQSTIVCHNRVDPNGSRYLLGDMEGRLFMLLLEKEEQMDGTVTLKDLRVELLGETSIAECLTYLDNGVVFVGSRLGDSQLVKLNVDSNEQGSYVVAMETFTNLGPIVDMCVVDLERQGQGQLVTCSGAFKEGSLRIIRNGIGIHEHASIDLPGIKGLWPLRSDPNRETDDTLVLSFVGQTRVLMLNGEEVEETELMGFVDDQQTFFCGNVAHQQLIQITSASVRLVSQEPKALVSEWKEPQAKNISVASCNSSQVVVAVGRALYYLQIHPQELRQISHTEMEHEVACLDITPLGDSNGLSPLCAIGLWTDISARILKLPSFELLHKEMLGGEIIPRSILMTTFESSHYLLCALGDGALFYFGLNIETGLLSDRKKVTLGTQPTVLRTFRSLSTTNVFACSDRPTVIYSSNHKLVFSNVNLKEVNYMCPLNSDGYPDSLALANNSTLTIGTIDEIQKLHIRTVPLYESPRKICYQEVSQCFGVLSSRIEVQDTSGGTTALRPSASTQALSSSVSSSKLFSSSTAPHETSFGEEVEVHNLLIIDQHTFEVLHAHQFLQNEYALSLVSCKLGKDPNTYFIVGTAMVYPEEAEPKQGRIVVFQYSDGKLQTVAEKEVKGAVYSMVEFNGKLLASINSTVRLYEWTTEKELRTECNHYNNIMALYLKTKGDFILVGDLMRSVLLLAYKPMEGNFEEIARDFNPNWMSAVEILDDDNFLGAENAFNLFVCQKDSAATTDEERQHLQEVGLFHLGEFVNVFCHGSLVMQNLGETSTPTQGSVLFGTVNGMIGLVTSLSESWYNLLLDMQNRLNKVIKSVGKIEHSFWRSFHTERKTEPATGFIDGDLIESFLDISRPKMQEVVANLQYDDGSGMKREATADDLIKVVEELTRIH
Chain of IKZF1 (Q13422 whole entry): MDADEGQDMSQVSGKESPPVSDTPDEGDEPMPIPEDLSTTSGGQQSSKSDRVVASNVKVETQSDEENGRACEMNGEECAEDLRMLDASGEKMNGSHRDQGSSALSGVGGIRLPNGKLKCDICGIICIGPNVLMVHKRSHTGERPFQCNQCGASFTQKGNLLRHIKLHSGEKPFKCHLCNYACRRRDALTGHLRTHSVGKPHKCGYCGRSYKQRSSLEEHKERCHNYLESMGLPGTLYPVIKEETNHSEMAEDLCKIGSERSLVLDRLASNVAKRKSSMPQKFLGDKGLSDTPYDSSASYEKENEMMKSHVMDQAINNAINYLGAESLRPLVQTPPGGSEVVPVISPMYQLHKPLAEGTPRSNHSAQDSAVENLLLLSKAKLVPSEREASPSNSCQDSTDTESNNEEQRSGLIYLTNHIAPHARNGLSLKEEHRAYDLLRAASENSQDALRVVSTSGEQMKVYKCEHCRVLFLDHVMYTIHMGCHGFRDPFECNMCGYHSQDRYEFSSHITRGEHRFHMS
Chain of IKZF1 (Q96SW2 whole entry): as the sequence (Q96SW2 whole entry) above
Chain of IKZF1 (Q16531 2-1140 partner): as the sequence (Q16531 2-1140 partner) above

Row | SMILES | IC50 [1] [µM] | DC50 [2] [µM] | Dmax [2] [%] | DC50 [3] [µM] | Dmax [3] [%]
1 | Cn1ccc2c(CN3CCC4(CC3)COC4)cc(-c3ccc4c(c3)CN(C3CCC(=O)NC3=O)C4=O)nc21 (stereo not drawn) [Example 73, 3-(5-(4-((2-oxa-7-azaspiro[3.5]nonan-7-yl)methyl)-1-methyl-1H-pyrrolo[2,3-b]pyridin-6-yl)-1-oxoisoindolin-2-yl) piperidine-2,6-dione] | 0.1 to 0.5 | > 10 | 20 to 40 | 0.001 to 0.01 | > 80
2 | CCn1ccc2c(CN3CCCC3)cc(-c3ccc4c(c3)CN(C3CCC(=O)NC3=O)C4=O)nc21 (stereo not drawn) [Example 74, 3-(5-(1-ethyl-4-(pyrrolidin-1-ylmethyl)-1H-pyrrolo[2,3-b]pyridin-6-yl)-1-oxoisoindolin-2-yl) piperidine-2,6-dione] | 0.5 to 1 | > 10 | < 20 | 0.001 to 0.01 | > 80
3 | Cn1ccc2c(CN3CCCC3)cc(-c3ccc4c(c3F)CN(C3CCC(=O)NC3=O)C4=O)nc21 (stereo not drawn) [Example 75, 3-(4-fluoro-5-(1-methyl-4-(pyrrolidin-1-ylmethyl)-1H-pyrrolo[2,3-b]pyridin-6-yl)-1-oxoisoindolin-2-yl) piperidine-2,6-dione] | 0.1 to 0.5 | > 10 | 20 to 40 | < 0.001 | > 80
4 | O=C1CCC(N2Cc3cc(-c4cc(CN5CCCC5)c5[nH]ccc5n4)ccc3C2=O)C(=O)N1 (stereo not drawn) [Example 76, 3-(1-oxo-5-(7-(pyrrolidin-1-ylmethyl)-1H-pyrrolo[3,2-b]pyridin-5-yl)isoindolin-2-yl) piperidine-2,6-dione] | 1 to 5 | > 10 | 20 to 40 | < 0.001 | > 80
5 | Cn1ccc2nc(-c3ccc4c(c3)CN(C3CCC(=O)NC3=O)C4=O)cc(CN3CCCC3)c21 (stereo not drawn) [Example 77, 3-(5-(1-methyl-7-(pyrrolidin-1-ylmethyl)-1H-pyrrolo[3,2-b]pyridin-5-yl)-1-oxoisoindolin-2-yl) piperidine-2,6-dione] | 1 to 5 | > 10 | 20 to 40 | < 0.001 | > 80
6 | O=C1CCC(N2Cc3cc(-c4cc(CN5CCCC5)c5ccccc5n4)ccc3C2=O)C(=O)N1 (stereo not drawn) [Example 78, 3-(1-oxo-5-(4-(pyrrolidin-1-ylmethyl)quinolin-2-yl)isoindolin-2-yl) piperidine-2,6-dione] | 0.5 to 1 | > 10 | 20 to 40 | < 0.001 | > 80
7 | O=C1CCC(N2Cc3cc(-c4cc(CN5CCCC5)c5c(n4)CCCC5)ccc3C2=O)C(=O)N1 (stereo not drawn) [Example 79, 3-(1-oxo-5-(4-(pyrrolidin-1-ylmethyl)-5,6,7,8-tetrahydroquinolin-2-yl)isoindolin-2-yl) piperidine-2,6-dione] | 0.1 to 0.5 | > 10 | 20 to 40 | < 0.001 | > 80
8 | O=C1CCC(N2Cc3cc(-c4cc(CN5CCCC5)c5c(n4)CCC5)ccc3C2=O)C(=O)N1 (stereo not drawn) [Example 80, 3-(1-oxo-5-(4-(pyrrolidin-1-ylmethyl)-6,7-dihydro-5H-cyclopenta[b]pyridin-2-yl)isoindolin-2-yl) piperidine-2,6-dione] | 0.1 to 0.5 |  | 20 to 40 | < 0.001 | > 80
9 | CC1CCN(Cc2cc(-c3ccc4c(c3)CN(C3CCC(=O)NC3=O)C4=O)nc3c2ccn3C)CC1 (stereo not drawn) [Example 81, 3-(5-(1-methyl-4-((4-methylpiperidin-1-yl)methyl)-1H-pyrrolo[2,3-b]pyridin-6-yl)-1-oxoisoindolin-2-yl) piperidine-2,6-dione] | 5 to 10 | 0.01 to 0.1 | 40 to 60 | < 0.001 | > 80
10 | Cn1ccc2c(CN3CCCC3)cc(-c3cc4c(cc3F)C(=O)N(C3CCC(=O)NC3=O)C4)nc21 (stereo not drawn) [Example 82, 3-(6-fluoro-5-(1-methyl-4-(pyrrolidin-1-ylmethyl)-1H-pyrrolo[2,3-b]pyridin-6-yl)-1-oxoisoindolin-2-yl) piperidine-2,6-dione] | 5 to 10 | > 10 | < 20 | 0.1 to 1 | 20 to 40
11 | Cn1ccc2c(CN3CCCC3)cc(-c3cc4c(cc3Cl)C(=O)N(C3CCC(=O)NC3=O)C4)nc21 (stereo not drawn) [Example 83, 3-(6-chloro-5-(1-methyl-4-(pyrrolidin-1-ylmethyl)-1H-pyrrolo[2,3-b]pyridin-6-yl)-1-oxoisoindolin-2-yl) piperidine-2,6-dione] | 1 to 5 | > 10 | < 20 | 0.001 to 0.01 | > 80
12 | O=C1CCC(N2Cc3cc(-c4cc(CN5CCC5)c5cc[nH]c5n4)ccc3C2=O)C(=O)N1 (stereo not drawn) [Example 84, 3-(5-(4-(azetidin-1-ylmethyl)-1H-pyrrolo[2,3-b]pyridin-6-yl)-1-oxoisoindolin-2-yl) piperidine-2,6-dione] | < 0.1 | 0.01 to 0.1 | 20 to 40 | 0.001 to 0.01 | > 80
13 | COC1CN(Cc2cc(-c3ccc4c(c3)CN(C3CCC(=O)NC3=O)C4=O)nc3c2ccn3C)C1 (stereo not drawn) [Example 85, 3-(5-(4-((3-methoxyazetidin-1-yl)methyl)-1-methyl-1H-pyrrolo[2,3-b]pyridin-6-yl)-1-oxoisoindolin-2-yl) piperidine-2,6-dione] | 0.1 to 0.5 | 0.001 to 0.01 | 20 to 40 | 0.001 to 0.01 | > 80
14 | CC(c1cc(-c2ccc3c(c2)CN(C2CCC(=O)NC2=O)C3=O)nc2c1ccn2C)N1CCCC1 (stereo not drawn) [Example 87, 3-(5-(1-methyl-4-(1-(pyrrolidin-1-yl)ethyl)-1H-pyrrolo[2,3-b]pyridin-6-yl)-1-oxoisoindolin-2-yl) piperidine-2,6-dione] | 0.1 to 0.5 | > 10 | < 20 | 0.1 to 1 | < 20
15 | Cn1ccc2c(Cn3ccnc3)cc(-c3ccc4c(c3)CN(C3CCC(=O)NC3=O)C4=O)nc21 (stereo not drawn) [Example 88, 3-(5-(4-((1H-imidazol-1-yl)methyl)-1-methyl-1H-pyrrolo[2,3-b]pyridin-6-yl)-1-oxoisoindolin-2-yl) piperidine-2,6-dione] | 1 to 5 | > 10 | < 20 | 0.01 to 0.1 | > 80
16 | Cn1ccc2c(C(=O)N3CCCC3)cc(-c3ccc4c(c3)CN(C3CCC(=O)NC3=O)C4=O)nc21 (stereo not drawn) [Example 89, 3-(5-(1-methyl-4-(pyrrolidine-1-carbonyl)-1H-pyrrolo[2,3-b]pyridin-6-yl)-1-oxoisoindolin-2-yl) piperidine-2,6-dione] | 0.5 to 1 | > 10 | < 20 | 0.1 to 1 | 20 to 40
17 | Cn1ccc2c(CN3CCC(C(F)(F)F)CC3)cc(-c3ccc4c(c3)CN(C3CCC(=O)NC3=O)C4=O)nc21 (stereo not drawn) [Example 90, 3-(5-(1-methyl-4-((4-(trifluoromethyl)piperidin-1-yl)methyl)-1H-pyrrolo[2,3-b]pyridin-6-yl)-1-oxoisoindolin-2-yl) piperidine-2,6-dione] | 0.1 to 0.5 | 0.01 to 0.1 | 20 to 40 | 0.001 to 0.01 | > 80
18 | Cn1ccc2c(CN3CC4(COC4)C3)cc(-c3ccc4c(c3)CN(C3CCC(=O)NC3=O)C4=O)nc21 (stereo not drawn) [Example 91, 3-(5-(4-((2-oxa-6-azaspiro[3.3]heptan-6-yl)methyl)-1-methyl-1H-pyrrolo[2,3-b]pyridin-6-yl)-1-oxoisoindolin-2-yl) piperidine-2,6-dione] | 0.5 to 1 | 0.01 to 0.1 | 20 to 40 | 0.001 to 0.01 | > 80
19 | CN(C)C(=O)C1CCN(Cc2cc(-c3ccc4c(c3)CN(C3CCC(=O)NC3=O)C4=O)nc3c2ccn3C)CC1 (stereo not drawn) [Example 92, 1-((6-(2-(2,6-dioxopiperidin-3-yl)-1-oxoisoindolin-5-yl)-1-methyl-1H-pyrrolo[2,3-b]pyridin-4-yl)methyl)-N,N-dimethylpiperidine-4-carboxamide] | < 0.1 | > 10 | < 20 | 0.001 to 0.01 | > 80
20 | COC1CCN(Cc2cc(-c3ccc4c(c3)CN(C3CCC(=O)NC3=O)C4=O)nc3c2ccn3C)C1 (stereo not drawn) [Example 93, 3-(5-(4-((3-methoxypyrrolidin-1-yl)methyl)-1-methyl-1H-pyrrolo[2,3-b]pyridin-6-yl)-1-oxoisoindolin-2-yl) piperidine-2,6-dione] | 0.1 to 0.5 | 0.01 to 0.1 | 20 to 40 | < 0.001 | > 80
